Measurements as given in ChEMBL document CHEMBL1150751, “Bioactive components of Allamanda schottii” (J Nat Prod, 1988).
≈ marks a conversion by molar mass, not a printed value. Calls of active or inactive are those of the source. No cut-off for these calls is given here.

Experiments:
Artemia = assay: Toxicity in brine shrimp; type: organism-based; conditions: in vivo
[1] = tested on: Agrobacterium tumefaciens; assay: Antitumor activity against Agrobacterium tumefaciens-induced crown gall tumor in potato tubers by potato disk assay; type: functional
[2] = Cytotoxicity against human 9KB cells; type: functional; conditions: read-out: ED50 (the source's name)
P388 = assay: Antileukemic activity against mouse P388 cells xenografted in mouse; type: functional

In the case of `COc1cc2ccc(=O)oc2cc1OC` [SCOPARONE], the LC50 (Artemia) is reported as 349 ppm, the inhibition [1] is reported as “inactive” and the EC50 [2] is reported as 61 µg/mL (≈ 296 µM).

For `COc1cc([C@H]2OC[C@H]3[C@@H]2CO[C@H]3c2ccc(O)c(OC)c2)ccc1O` [PINORESINOL], the LC50 (Artemia) was 377 ppm, the inhibition [1] was “inactive” and the EC50 [2] was 100 µg/mL (≈ 279 µM).

For `C/C=C1/C(=O)O[C@@]23C=C[C@H]4C[C@H](O)O[C@@H](O[C@H]12)[C@H]43` [ALLAMCIN], the LC50 (Artemia) was greater than 1000 ppm and the inhibition [1] was “inactive”.

For `C/C=C1\C(=O)O[C@]23C=C[C@@H]4C(C(=O)OC)=CO[C@H](O[C@@H]12)[C@@H]43` [ISOPLUMERICIN], the LC50 (Artemia) was 1.7 ppm, the “inhibition (INH)” value [1] was 44% and the T/C (P388) was 145%. The EC50 [2] was 2.7 µg/mL (≈ 9.3 µM).

With `C/C=C1/C(=O)O[C@]23C=C[C@@H]4C(C(=O)OC)=CO[C@H](O[C@@H]12)[C@@H]43` [PLUMERICIN] the LC50 (Artemia) was 1.7 ppm, the “inhibition (INH)” value [1] was 44% and the EC50 [2] was 2.6 µg/mL (≈ 8.96 µM).

With `COc1cc2ccc(=O)oc2cc1O` [SCOPOLETIN] the LC50 (Artemia) was 55 ppm, the “inhibition (INH)” value [1] was 20% and the T/C (P388) was 133%. The EC50 [2] was 16 µg/mL (≈ 83.3 µM).

In the case of `C/C=C1/C(=O)O[C@@]23C=C[C@H]4[C@@H](C(=O)OC)[C@H](O)O[C@@H](O[C@H]12)[C@H]43` [ALLAMANDIN], the LC50 (Artemia) is reported as 21.3 ppm, the “inhibition (INH)” value [1] is reported as 51% and the T/C (P388) is reported as 145%. For the same molecule, the EC50 [2] was 2.1 µg/mL (≈ 6.81 µM).
